Source: US10047105B2, “Gyrase inhibitors” (Merck Sharp & Dohme Corp., priority 2009, dated 2018)
Converted amounts (≈) assume the structure as drawn.

Legend:
S. pneumoniae ATCC 51916 = assay: MIC, S. pneumoniae; assay type: cell-based; conditions: S. pneumoniae
S. aureus ATCC 13709 = assay: MIC, antibacterial potency, S. aureus; assay type: cell-based; conditions: S. aureus

| Compound | MIC Spn52 (S. pneumoniae ATCC 51916) [µg/mL] | MIC, SA (S. aureus ATCC 13709) [µg/mL] |
| --- | --- | --- |
| CCOc1nc(Nc2cnc3ccccc3c2)nc2[nH]c(CC)c(Br)c12.O=C(O)C(F)(F)F [700,363] | > 64 | > 64 |
| CCc1[nH]c2nc(Sc3nc(C(=O)NOC)cs3)nc(N3CCN(C(C)=O)CC3)c2c1Cl.O=C(O)C(F)(F)F [700,364] | > 64 | 32 |
| CCc1[nH]c2nc(Sc3nc(C(=O)N4CCOCC4)cs3)nc(N3CCN(C(C)=O)CC3)c2c1Cl.O=C(O)C(F)(F)F [700,365] | > 64 | > 64 |
| CCc1[nH]c2nc(Sc3cc(-n4cccn4)nc(C)n3)nc(NCC3CCCO3)c2c1Cl (stereo not drawn) [700,373] | > 64 | > 64 |
| CCOc1nc(Nc2cnc3cccnc3n2)nc2[nH]c(CC)c(Br)c12.Cl.Cl [700,378] | > 64 | > 64 |
| CCOc1nc(Nc2cnc3c(cnn3C(C)C)c2)nc2[nH]c(CC)c(Br)c12.O=C(O)C(F)(F)F [700,381] | 8 | 1 |
| CCc1[nH]c2nc(Sc3nc(-c4nnc(C)o4)cs3)nc(N3CC(O)C3)c2c1Cl.Cl.Cl.Cl [700,387] | > 64 | 16 |
| CCOc1nc(Nc2ccc3cccnc3c2)nc2[nH]c(CC)c(Br)c12.O=C(O)C(F)(F)F [700,388] | 16 | 4 |
| CCOc1nc(Nc2cc(OC)c(OC)c(OC)c2Br)nc2[nH]c(CC)c(Br)c12.O=C(O)C(F)(F)F [700,389] | > 64 | > 64 |
| CCc1[nH]c2nc(Sc3nc(C(=O)O)co3)nc(N3CC(O)C3)c2c1Cl.O=C(O)C(F)(F)F.O=C(O)C(F)(F)F [700,395] | > 64 | > 64 |
| CCc1[nH]c2nc(Sc3nc(C(=O)O)cs3)nc(N3CCOCC3)c2c1Cl.O=C(O)C(F)(F)F [700,396] | > 64 | > 64 |
| CCc1[nH]c2nc(Sc3nc(C(=O)NOC)cs3)nc(N3CCOCC3)c2c1Cl.O=C(O)C(F)(F)F [700,397] | > 64 | > 64 |
| CCc1[nH]c2nc(Sc3nc(C(=O)O)cs3)nc(N3CCNCC3)c2c1Cl.O=C(O)C(F)(F)F [700,398] | > 64 | > 64 |
| CCOc1nc(Nc2cnc3c(cnn3C(C)C)c2)nc2[nH]c(CC)c(Cl)c12.O=C(O)C(F)(F)F [700,406] | 16 | 2 |
| CCc1[nH]c2nc(Sc3nc(C(=O)O)cs3)nc(N(C)C)c2c1Cl.O=C(O)C(F)(F)F [700,407] | > 64 | > 64 |
| CCc1[nH]c2nc(Sc3nc(C(=O)O)cs3)nc(N3CCCC(CO)C3)c2c1Cl.O=C(O)C(F)(F)F (stereo not drawn) [700,408] | > 64 | > 64 |

| Compound | MIC Spn52 (S. pneumoniae ATCC 51916) [µg/mL] | MIC, SA (S. aureus ATCC 13709) [µg/mL] |
| --- | --- | --- |
| CCc1[nH]c2nc(Oc3cccnc3)nc(Oc3cccnc3)c2c1Cl.O=C(O)C(F)(F)F [700,410] | 4 | 1 |
| CCc1[nH]c2nc(Sc3cc(OC)nc(OC)n3)nc(N3CC(O)C3)c2c1Cl.Cl.Cl [700,411] | > 64 | > 64 |
| CCOc1ccc(Nc2nc(OCC)c3c(Br)c(CC)[nH]c3n2)cn1.O=C(O)C(F)(F)F [700,417] | 16 | 1 |
| CCc1[nH]c2nc(Sc3cnc(C#N)c(F)c3)nc(N3CC(O)C3)c2c1Cl.O=C(O)C(F)(F)F.O=C(O)C(F)(F)F [700,422] | > 64 | > 64 |
| CCc1[nH]c2nc(Sc3cnc4nccnc4c3)nc(N3CCOCC3)c2c1Cl [700,424] | 1 (≈ 2.34 µM) | ≤ 0.5 |
| CCc1[nH]c2nc(Sc3cnc4nccnc4c3)nc(N3CCC[C@H]3CO)c2c1Cl [700,426] | 1 (≈ 2.26 µM) | 1 (≈ 2.26 µM) |
| CCc1[nH]c2nc(Sc3cnc4nccnc4c3)nc(N3CCC(N4CCOCC4)C3)c2c1Cl (stereo not drawn) [700,429] | 2 (≈ 4.02 µM) | ≤ 0.5 |
| CCc1[nH]c2nc(Sc3cnc4nccnc4c3)nc(N3CC[C@@H](N(C)C)C3)c2c1Cl [700,430] | 32 (≈ 70.3 µM) | 32 (≈ 70.3 µM) |
| CCc1[nH]c2nc(Sc3cnc4nccnc4c3)nc(N(C)CC(O)C(O)C(O)C(O)CO)c2c1Cl (stereo not drawn) [700,431] | > 64 | > 64 |
| CCc1[nH]c2nc(Sc3cnc4nccnc4c3)nc(Oc3cccnc3)c2c1Cl [700,432] | 4 (≈ 9.18 µM) | 1 (≈ 2.29 µM) |
| CCc1[nH]c2nc(Sc3cnc4nccnc4c3)nc(N3CC(NS(=O)(=O)c4cnoc4C)C3)c2c1Cl [700,437] | 2 (≈ 3.58 µM) | ≤ 0.5 |
| CCc1[nH]c2nc(Sc3cnc4nccnc4c3)nc(N3CC(NC(=O)c4cnccn4)C3)c2c1Cl [700,439] | 1 (≈ 1.93 µM) | ≤ 0.5 |
| CCOc1nc(Nc2ccc3nccnc3c2)nc2[nH]c(CC)c(Br)c12.O=C(O)C(F)(F)F [700,443] | > 64 | > 64 |
| CCc1[nH]c2nc(Sc3cnc4nccnc4c3)nc(N3CCN(CCN)CC3)c2c1Cl.O=C(O)C(F)(F)F [700,444] | 8 | 4 |
| CCc1[nH]c2nc(Sc3cnc4nccnc4c3)nc(N3CCN(CCO)CC3)c2c1Cl.O=C(O)C(F)(F)F [700,445] | 16 | 16 |
| CCc1[nH]c2nc(Sc3cnc4c(N)nc(N)nc4c3)nc(N3CC(O)C3)c2c1Cl.O=C(O)C(F)(F)F.O=C(O)C(F)(F)F [700,448] | 2 | 1 |

Results, then the molecule that gave them:

| MIC Spn52 (S. pneumoniae ATCC 51916) [µg/mL] | MIC, SA (S. aureus ATCC 13709) [µg/mL] | Compound |
| --- | --- | --- |
| > 64 | > 64 | CCc1[nH]c2nc(Sc3nc4ncccc4c(=O)[nH]3)nc(N3CC(O)C3)c2c1Br [700,358] |
| 8 (≈ 20.3 µM) | 2 (≈ 5.07 µM) | CCc1[nH]c2nc(Sc3cc(=O)[nH]c(=O)[nH]3)nc(N3CC(O)C3)c2c1Cl [700,359] |
| 2 (≈ 4.55 µM) | ≤ 0.5 | CCc1[nH]c2nc(Sc3cc(=O)[nH]c(=O)[nH]3)nc(N3CC(O)C3)c2c1Br [700,360] |
| > 64 | > 64 | Cc1[nH]c2nc(Sc3cc(=O)[nH]c(=O)[nH]3)nc(N3CC(O)C3)c2c1Br [700,362] |
| > 64 | > 64 | CCc1[nH]c2nc(Cn3cncn3)nc(N3CCN(C(C)=O)CC3)c2c1Br [700,374] |
| > 64 | 8 (≈ 17 µM) | CCc1[nH]c2nc(Nc3cnc4c(cnn4C(C)C)c3)nc(N3CC(O)C3)c2c1Br [700,385] |
| 8 (≈ 15.2 µM) | ≤ 0.5 | CCOC(=O)Cn1c(=O)cc(Sc2nc(N3CC(O)C3)c3c(Br)c(CC)[nH]c3n2)[nH]c1=O [700,386, Ethyl 2-(4-(5-bromo-6-ethyl-4-(3-hydroxyazetidin-1-yl)-7H-pyrrolo[2,3-d]pyrimidin-2-ylthio)-2,6-dioxo-2,3-dihydropyrimidin-1 (6H)-yl)acetate] |
| ≤ 0.5 | ≤ 0.5 | CCc1[nH]c2nc(Sc3cnc4cccnc4n3)nc(N3CC(NC(=O)OCc4ccccc4)C3)c2c1Br [700,390] |
| > 64 | > 64 | CCc1[nH]c2nc(Sc3nc(C(=O)O)c(Cl)s3)nc(N3CC(O)C3)c2c1Br [700,391] |
| ≤ 0.5 | ≤ 0.5 | CCc1[nH]c2nc(Sc3cnc4nccnc4c3)nc(N3CC(O)C3)c2c1Br [700,392] |
| 1 (≈ 2.42 µM) | ≤ 0.5 | CCc1[nH]c2nc(Sc3cnc4nccnc4c3)nc(N3CC(O)C3)c2c1Cl [700,393] |
| > 64 | > 64 | CCc1[nH]c2nc(Sc3cc(=O)n(CC(=O)O)c(=O)[nH]3)nc(N3CC(O)C3)c2c1Br [700,402] |
| 8 (≈ 14.8 µM) | 4 (≈ 7.4 µM) | CCc1[nH]c2nc(Sc3ccc4c(N5CCNCC5)ccnc4c3)nc(N3CC(O)C3)c2c1Br [700,403] |
| ≤ 0.5 | ≤ 0.5 | CCc1[nH]c2nc(Sc3cnc4nccnc4c3)nc(N3CC(NC(=O)OCc4ccccc4)C3)c2c1Br [700,404] |
| 2 (≈ 4.22 µM) | ≤ 0.5 | CCc1[nH]c2nc(Sc3cnc4c(c3)ncn4CC)nc(N3CC(O)C3)c2c1Br [700,405] |
| > 64 | > 64 | CCc1[nH]c2nc(Sc3cc(=O)n(CCC4CCCCC4)c(=O)[nH]3)nc(N3CC(O)C3)c2c1Br [700,412] |

| MIC Spn52 (S. pneumoniae ATCC 51916) [µg/mL] | MIC, SA (S. aureus ATCC 13709) [µg/mL] | Compound |
| --- | --- | --- |
| 1 (≈ 2.08 µM) | ≤ 0.5 | CCCn1c(=O)cc(Sc2nc(N3CC(O)C3)c3c(Br)c(CC)[nH]c3n2)[nH]c1=O [700,414] |
| 1 (≈ 1.87 µM) | ≤ 0.5 | CCc1[nH]c2nc(Sc3cc(=O)n(CCC(F)(F)F)c(=O)[nH]3)nc(N3CC(O)C3)c2c1Br [700,415] |
| 2 (≈ 4.05 µM) | ≤ 0.5 | CCc1[nH]c2nc(Sc3cc(=O)n(CC4CC4)c(=O)[nH]3)nc(N3CC(O)C3)c2c1Br [700,416] |
| 8 (≈ 18.3 µM) | 1 (≈ 2.29 µM) | CCCn1c(=O)cc(Sc2nc(N3CC(O)C3)c3c(Cl)c(CC)[nH]c3n2)[nH]c1=O [700,418] |
| 2 (≈ 4.23 µM) | 1 (≈ 2.12 µM) | CCc1[nH]c2nc(Sc3cnc4nccnc4c3)nc(N3CCOCC3)c2c1Br [700,423] |
| 2 (≈ 4.39 µM) | ≤ 0.5 | CCc1[nH]c2nc(Sc3cnc4nccnc4c3)nc(N3CCCC(CO)C3)c2c1Cl (stereo not drawn) [700,425] |
| 1 (≈ 2.34 µM) | ≤ 0.5 | CCc1[nH]c2nc(Sc3cnc4nccnc4c3)nc(N3CC[C@H](O)C3)c2c1Cl [700,427] |
| 1 (≈ 2.34 µM) | ≤ 0.5 | CCc1[nH]c2nc(Sc3cnc4nccnc4c3)nc(N3CC[C@@H](O)C3)c2c1Cl [700,428] |
| 1 (≈ 2.21 µM) | ≤ 0.5 | CCc1[nH]c2nc(Sc3cc(=O)n(C)c(=O)[nH]3)nc(N3CC(O)C3)c2c1Br [700,433] |
| 1 (≈ 2.04 µM) | ≤ 0.5 | CCc1[nH]c2nc(Sc3cnc4nccnc4c3)nc(N3CC(NS(C)(=O)=O)C3)c2c1Cl [700,435] |
| 1 (≈ 1.79 µM) | ≤ 0.5 | CCc1[nH]c2nc(Sc3cnc4nccnc4c3)nc(N3CC(NS(=O)(=O)CC(F)(F)F)C3)c2c1Cl [700,436] |
| 1 (≈ 2.06 µM) | ≤ 0.5 | CCc1[nH]c2nc(Sc3cnc4nccnc4c3)nc(N3CC(NC(=O)COC)C3)c2c1Cl [700,438] |
| ≤ 0.5 | ≤ 0.5 | CCc1[nH]c2nc(Sc3cnc4nccnc4c3)nc(N3CC(NC(=O)C4CC4)C3)c2c1Cl [700,440] |
| 2 (≈ 4.4 µM) | ≤ 0.5 | CCc1[nH]c2nc(Sc3cnc4nccnc4c3)nc(N3CC(NC(C)=O)C3)c2c1Cl [700,441] |
| 2 (≈ 4.04 µM) | ≤ 0.5 | CCc1[nH]c2nc(Sc3cc(=O)n(CC(C)=O)c(=O)[nH]3)nc(N3CC(O)C3)c2c1Br [700,442] |
